The data set in a line: Physical stability under accelerated aging conditions (40° C./70% RH), physical form re-determined by HT-XRPD. It counts as physicochemical. The procedure:
Solids were analyzed for their physical stability under accelerated aging conditions (40° C./70% RH) for 48 hours. After the exposure, the physical form was determined again by HT-XRPD analysis. The physico-chemical characterization of the forms was done by TGMS analysis to determine the solvation state of the form and thermal events and by DSC analysis to confirm the thermal events observed in the SDTA signal of the TGA. (See Examples for details.)
Suspensions of 3-[2-butyl-1-(2-diethylamino-ethyl)-1H-benzoimidazol-5-yl]-N-hydroxy-acrylamide dihydrochloride monohydrate (Form 1) and 2.5 hydrate (Form 3) were prepared in 12 process relevant solvent systems. The suspensions were cycled between 5° C. and 50° C. followed by aging at 25° C. for 72 hours. […] Upon completion of the incubation time, the solids were collected, dried under ambient conditions and dried under deep vacuum before being analyzed by HT-XRPD. All the measured solids were exposed to accelerated ageing conditions (2 days at 40° C./70% RH) followed by re-analysis by HT-XRPD.
Long-term slurry conversion experiments were carried out by preparing suspensions of 3-[2-butyl-1-(2-diethylamino-ethyl)-1H-benzoimidazol-5-yl]-N-hydroxy-acrylamide dihydrochloride 2.5 hydrate (Form 3) and monohydrate (Form 1) in 12 different solvents and solvent mixtures. Approximately 30 mg of the specific form was dosed in a standard HPLC vial and aliquots of 100 μL of solvent until a suspension was formed. The suspensions were stirred for 2 weeks at room temperature and for 1 week at 50° C. The solids were isolated from the mother liquor and analyzed by HT-XRPD after mild drying under ambient conditions (ambient) and after thorough drying under vacuum (vacuum). All the solids were exposed to accelerated ageing conditions (2 days at 40° C./70% RH) and re-analyzed by HT-XRPD.
The competitive slurry experiments were performed in ethanol/water mixtures and methanol/water mixtures within a water activity range of 0-0.2. Approximately 50 mg of each pracinostat dihydrochloride solid form 2.5 hydrate and monohydrate were solid dosed in 1.8 mL HPLC vials. Aliquots of 100 μL of the different water mixtures were added until about half of the amount of solid was in solution. Subsequently, the vials were stirred for one week at 5° C., 21° C. and 50° C. Upon completion of the equilibration time, the solids were separated from the liquids by centrifugation. The solids were dried under ambient conditions (ambient) and dried under vacuum (vacuum) before HT-XRPD analysis. All solid samples were exposed to accelerated gaining conditions (40° C. and 70% RH) for two days (AAC). The water content in the liquid phase was determined Karl Fischer analysis.

The structures appear in SMILES notation. Structures can show the parent of a compound that is named as a salt.

`CCCCc1nc2cc(/C=C/C(=O)NO)ccc2n1CCN(CC)CC` [Form 1, 3-[2-butyl-1-(2-diethylamino-ethyl)-1H-benzoimidazol-5-yl]-N-hydroxy-acrylamide dihydrochloride monohydrate]: under “2 days at 40° C./70% RH”, the “solid form after accelerated aging conditions” value is “converted to the 2.5 hydrate Form 3”. For the setting “physical stability under accelerated aging conditions (40° C./70% RH) for 48 hours, dihydrochloride monohydrate”, the Stability entry is reported as “Unstable”.
